# From PubChem BioAssay (NCI)
#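 48-hour exposure; five concentrations; linearly interpolated endpoints. TGI denotes the concentration required for complete inhibition of growth.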
# Tests used:
# Experiment in all cases: NCI tumour cell line growth inhibition, 48 h
# MDA-MB-231 breast = system: MDA-MB-231 breast
# MDA-MB-435 = system: MDA-MB-435
# NCI-H522 lung = system: NCI-H522 lung
# U251 CNS = system: U251 CNS
# NCI-H460 lung = system: NCI-H460 lung
# SNB-19 CNS = system: SNB-19 CNS
# UACC-62 melanoma = system: UACC-62 melanoma
# HCT-15 colon = system: HCT-15 colon
# T-47D breast = system: T-47D breast
# SF-268 CNS = system: SF-268 CNS
# CAKI-1 renal = system: CAKI-1 renal
# ACHN renal = system: ACHN renal
# NCI-H226 lung = system: NCI-H226 lung
# A498 renal = system: A498 renal
# SW-620 colon = system: SW-620 colon
# SF-539 CNS = system: SF-539 CNS
# DU-145 prostate = system: DU-145 prostate
Compound,TGI (MDA-MB-231 breast) [µM],TGI (MDA-MB-435) [µM],TGI (NCI-H522 lung) [µM],TGI (U251 CNS) [µM],TGI (NCI-H460 lung) [µM],TGI (SNB-19 CNS) [µM],TGI (UACC-62 melanoma) [µM],TGI (HCT-15 colon) [µM],TGI (T-47D breast) [µM],TGI (SF-268 CNS) [µM],TGI (CAKI-1 renal) [µM],TGI (ACHN renal) [µM],TGI (NCI-H226 lung) [µM],TGI (A498 renal) [µM],TGI (SW-620 colon) [µM],TGI (SF-539 CNS) [µM],TGI (DU-145 prostate) [µM]
Cc1c2cccc-2ccc2c1[nH]c1ccc(Br)cc12,18.8,16.7,6.29,12.1,> 100,23.8,27.1,14,4.01,17.2,24.9,24.4,5.6,37.9,25.2,19.1,22.9
NNc1ccccc1Cl,> 100,> 100,> 100,> 100,> 100,> 100,> 100,> 100,> 100,> 100,> 100,> 100,> 100,> 100,> 100,> 100,> 100
CC(C)(C)CC(C)(C)N=C(N)NO,> 100,> 100,> 100,> 100,> 100,> 100,> 100,> 100,> 100,> 100,> 100,23.4,> 100,97.6,> 100,> 100,> 100
COC(=O)[C@@H]1C2OC(C)(C)OC2CN1C(=O)OCc1ccccc1 (some centres undefined),> 100,> 100,> 100,> 100,> 100,> 100,> 100,> 100,> 100,> 100,> 100,> 100,> 100,> 100,> 100,> 100,> 100
O=C1c2cscc2C(=O)C1(O)O,> 100,99.7,40.3,> 100,> 100,> 100,> 100,> 100,37.5,> 100,83.7,> 100,> 100,> 100,42.1,> 100,> 100
CN1CCCC1=NC#N,> 100,> 100,> 100,> 100,> 100,> 100,> 100,> 100,> 100,> 100,> 100,> 100,> 100,> 100,> 100,> 100,> 100
CO[C@@H]1C=C[C@@]23c4cc5c(cc4C(O)N(CC2O)C3C1)OCO5 (some centres undefined),21.8,18.2,> 100,16.6,12.9,33.8,20.4,39.3,8.01,> 100,27.2,18.6,> 100,7.68,> 100,> 100,50.7
COc1ccc([C@H]2C=C(c3cc(F)c(Cl)cc3Cl)NC(=S)N2)cc1,> 100,56.4,> 100,95.8,54.3,> 100,> 100,> 100,> 100,> 100,> 100,> 100,> 100,79.2,> 100,> 100,> 100
N#Cc1c(N)c2c(c(-c3ccccc3)c1-c1ccccc1)C(=O)N(NC(=O)c1ccccc1)C2=O,> 100,> 100,> 100,> 100,> 100,> 100,> 100,> 100,> 100,> 100,> 100,> 100,> 100,> 100,> 100,> 100,> 100
Cn1c(=O)c2c(nc(N)n2C2OC(CO)C(O)C2O)n(C)c1=O (centres undefined),> 100,> 100,> 100,> 100,> 100,> 100,> 100,> 100,> 100,> 100,> 100,> 100,> 100,> 100,> 100,> 100,> 100
COc1ccc2oc(=O)c3c(c2c1C)OC(C)(C)C=C3,> 100,> 100,> 100,> 100,> 100,> 100,> 100,> 100,> 100,> 100,> 100,> 100,> 100,> 100,> 100,> 100,> 100
Cc1cc(S(=O)(=O)NC2=NC(c3ccccc3)c3ccccc3N2)c(S)cc1Cl (centres undefined),> 100,> 100,> 100,> 100,> 100,> 100,> 100,> 100,> 100,> 100,> 100,> 100,> 100,> 100,> 100,> 100,> 100
